We go through 17 compounds from patent publication US12304890B2, “R-type pyridyloxycarboxylic acid, salt and ester derivative thereof, and preparation method therefor, and herbicidal composition and application thereof” (Qingdao Kingagroot Chemical Compound Co., Ltd., priority 2018, dated 2025).

The subject of the test is Monocotyledonous and dicotyledonous weed seeds and main crop seeds. The test can be described thus: Post-emergence test experiment, other weeds and crops (Table 4, 1000 g a.i./ha). The test is classed as in vivo. The note with it: 3 weeks in greenhouse, fresh weight inhibition. The procedure: The above described growth inhibition rate is fresh weight inhibition rate.
Post-emergence test experiment: Monocotyledonous and dicotyledonous weed seeds and main crop seeds (i. e. wheat, corn, rice, soybean, cotton, oilseed, millet and sorghum.) were put into a plastic pot loaded with soil. Then covered with 0.5-2 cm soil, the seeds were allowed to grow in good greenhouse environment. The test plants were treated at 2-3 leaf stage 2 weeks after sowing. The test compounds of the invention were dissolved with acetone respectively, then added with tween-80, and using 1.5 liters per hectare of an emulsible concentrate of methyl oleate as a synergist, and diluted by certain amount of water to certain concentration. The solution was sprayed to the plants with a sprayer.

For the compound `COC(=O)C(C#N)Oc1nc(F)c(Cl)c(N)c1Cl` (stereo not drawn) [Compound 2-61], the “Activity level (growth inhibition rate), Abutilon theophrasti Medic.” value is listed as 5 (Level 5: the growth inhibition rate is greater than 85%); the “Activity level (growth inhibition rate), Galium aparine” value was 5 (Level 5: the growth inhibition rate is greater than 85%); the “Activity level (growth inhibition rate), Monochoria Vaginalis” value was 5 (Level 5: the growth inhibition rate is greater than 85%).

`NCCOCCO.Nc1c(Cl)c(F)nc(O[C@@H](C(=O)O)c2ccccc2)c1Cl` [Compound 2-11]: the “Activity level (growth inhibition rate), Abutilon theophrasti Medic.” value is on record as 5 (Level 5: the growth inhibition rate is greater than 85%); the “Activity level (growth inhibition rate), Galium aparine” value is 5 (Level 5: the growth inhibition rate is greater than 85%); the “Activity level (growth inhibition rate), Monochoria Vaginalis” value is 5 (Level 5: the growth inhibition rate is greater than 85%).

Take `COC(=O)C(Oc1nc(F)c(Cl)c(N)c1Cl)C(F)F` (stereo not drawn) [Compound 2-44]: the “Activity level (growth inhibition rate), Abutilon theophrasti Medic.” value is listed as 5 (Level 5: the growth inhibition rate is greater than 85%); the “Activity level (growth inhibition rate), Galium aparine” value is 5 (Level 5: the growth inhibition rate is greater than 85%); the “Activity level (growth inhibition rate), Monochoria Vaginalis” value is recorded as 5 (Level 5: the growth inhibition rate is greater than 85%).

With `COC(=O)C(Oc1nc(F)c(Cl)c(N)c1Cl)c1ccccc1` (stereo not drawn) [Compound 2-62], the “Activity level (growth inhibition rate), Abutilon theophrasti Medic.” value is recorded as 5 (Level 5: the growth inhibition rate is greater than 85%); the “Activity level (growth inhibition rate), Galium aparine” value is 5 (Level 5: the growth inhibition rate is greater than 85%); the “Activity level (growth inhibition rate), Monochoria Vaginalis” value is on record as 5 (Level 5: the growth inhibition rate is greater than 85%).

Turning to `COC(=O)C(Br)Oc1nc(F)c(Cl)c(N)c1Cl` (stereo not drawn) [Compound 2-52], the “Activity level (growth inhibition rate), Abutilon theophrasti Medic.” value was 5 (Level 5: the growth inhibition rate is greater than 85%); the “Activity level (growth inhibition rate), Galium aparine” value is given as 5 (Level 5: the growth inhibition rate is greater than 85%); the “Activity level (growth inhibition rate), Monochoria Vaginalis” value is reported as 5 (Level 5: the growth inhibition rate is greater than 85%).

Take `CC[C@@H](Oc1nc(F)c(Cl)c(N)c1Cl)C(=O)SC` [Compound 2-33]: the “Activity level (growth inhibition rate), Abutilon theophrasti Medic.” value was 5 (Level 5: the growth inhibition rate is greater than 85%); the “Activity level (growth inhibition rate), Galium aparine” value is 5 (Level 5: the growth inhibition rate is greater than 85%); the “Activity level (growth inhibition rate), Monochoria Vaginalis” value was 5 (Level 5: the growth inhibition rate is greater than 85%).

Consider `CCC(Oc1nc(F)c(Cl)c(N)c1Cl)C(=O)[O-].C[N+](C)(C)Cc1ccccc1` (stereo not drawn) [Compound 2-5], for which the “Activity level (growth inhibition rate), Abutilon theophrasti Medic.” value is 5 (Level 5: the growth inhibition rate is greater than 85%); the “Activity level (growth inhibition rate), Galium aparine” value is 5 (Level 5: the growth inhibition rate is greater than 85%); the “Activity level (growth inhibition rate), Monochoria Vaginalis” value is listed as 5 (Level 5: the growth inhibition rate is greater than 85%).

Regarding `CCCC(Oc1nc(F)c(Cl)c(N)c1Cl)C(=O)OC` (stereo not drawn) [Compound 2-37], the “Activity level (growth inhibition rate), Abutilon theophrasti Medic.” value was 5 (Level 5: the growth inhibition rate is greater than 85%); the “Activity level (growth inhibition rate), Galium aparine” value is 5 (Level 5: the growth inhibition rate is greater than 85%); the “Activity level (growth inhibition rate), Monochoria Vaginalis” value is reported as 5 (Level 5: the growth inhibition rate is greater than 85%).

As for `NC(CO)(CO)CO` [Compound 2-23, tri(methylol) aminomethane], the “Activity level (growth inhibition rate), Abutilon theophrasti Medic.” value was 5 (Level 5: the growth inhibition rate is greater than 85%); the “Activity level (growth inhibition rate), Galium aparine” value was 5 (Level 5: the growth inhibition rate is greater than 85%); the “Activity level (growth inhibition rate), Monochoria Vaginalis” value is 5 (Level 5: the growth inhibition rate is greater than 85%).

As for `COC(=O)[C@H](Oc1nc(F)c(Cl)c(N)c1Cl)c1[nH]ncc1F` [Compound 2-68], the “Activity level (growth inhibition rate), Abutilon theophrasti Medic.” value is 5 (Level 5: the growth inhibition rate is greater than 85%); the “Activity level (growth inhibition rate), Galium aparine” value is 5 (Level 5: the growth inhibition rate is greater than 85%); the “Activity level (growth inhibition rate), Monochoria Vaginalis” value was 5 (Level 5: the growth inhibition rate is greater than 85%).

Take `COC(=O)C(CN(C)C)Oc1nc(F)c(Cl)c(N)c1Cl` (stereo not drawn) [Compound 2-59]: the “Activity level (growth inhibition rate), Abutilon theophrasti Medic.” value is 5 (Level 5: the growth inhibition rate is greater than 85%); the “Activity level (growth inhibition rate), Galium aparine” value is 5 (Level 5: the growth inhibition rate is greater than 85%); the “Activity level (growth inhibition rate), Monochoria Vaginalis” value is listed as 5 (Level 5: the growth inhibition rate is greater than 85%).

In the case of `COC(=O)C(Oc1nc(F)c(Cl)c(N)c1Cl)C1CC1` (stereo not drawn) [Compound 2-38], the “Activity level (growth inhibition rate), Abutilon theophrasti Medic.” value was 5 (Level 5: the growth inhibition rate is greater than 85%); the “Activity level (growth inhibition rate), Galium aparine” value was 5 (Level 5: the growth inhibition rate is greater than 85%); the “Activity level (growth inhibition rate), Monochoria Vaginalis” value is 5 (Level 5: the growth inhibition rate is greater than 85%).

Turning to `Nc1c(Cl)c(F)nc(O[C@@H](C(=O)[O-])c2ccccc2)c1Cl.[Na+]` [Compound 2-1], the “Activity level (growth inhibition rate), Abutilon theophrasti Medic.” value is 5 (Level 5: the growth inhibition rate is greater than 85%); the “Activity level (growth inhibition rate), Galium aparine” value was 5 (Level 5: the growth inhibition rate is greater than 85%); the “Activity level (growth inhibition rate), Monochoria Vaginalis” value was 5 (Level 5: the growth inhibition rate is greater than 85%).

In the case of `CC(C)N.Nc1c(Cl)c(F)nc(O[C@@H](C(=O)O)c2ccccc2)c1Cl` [Compound 2-8], the “Activity level (growth inhibition rate), Abutilon theophrasti Medic.” value was 5 (Level 5: the growth inhibition rate is greater than 85%); the “Activity level (growth inhibition rate), Galium aparine” value is 5 (Level 5: the growth inhibition rate is greater than 85%); the “Activity level (growth inhibition rate), Monochoria Vaginalis” value is 5 (Level 5: the growth inhibition rate is greater than 85%).

On to `NCCNCCNCCN` [Compound 2-18, triethylenetetramine], for which the “Activity level (growth inhibition rate), Abutilon theophrasti Medic.” value is on record as 5 (Level 5: the growth inhibition rate is greater than 85%); the “Activity level (growth inhibition rate), Galium aparine” value is on record as 5 (Level 5: the growth inhibition rate is greater than 85%); the “Activity level (growth inhibition rate), Monochoria Vaginalis” value is reported as 5 (Level 5: the growth inhibition rate is greater than 85%).

With `CCC(Oc1nc(F)c(Cl)c(N)c1Cl)C(=O)O.NCCO` (stereo not drawn) [Compound 2-10], the “Activity level (growth inhibition rate), Abutilon theophrasti Medic.” value is 5 (Level 5: the growth inhibition rate is greater than 85%); the “Activity level (growth inhibition rate), Galium aparine” value is 5 (Level 5: the growth inhibition rate is greater than 85%); the “Activity level (growth inhibition rate), Monochoria Vaginalis” value was 5 (Level 5: the growth inhibition rate is greater than 85%).

For the compound `CCC(Oc1nc(F)c(Cl)c(N)c1Cl)C(=O)OC` (stereo not drawn) [Compound 2-34], the “Activity level (growth inhibition rate), Abutilon theophrasti Medic.” value was 5 (Level 5: the growth inhibition rate is greater than 85%); the “Activity level (growth inhibition rate), Galium aparine” value is recorded as 5 (Level 5: the growth inhibition rate is greater than 85%); the “Activity level (growth inhibition rate), Monochoria Vaginalis” value is given as 5 (Level 5: the growth inhibition rate is greater than 85%).
